Molecular target: 5-HT1D receptor (Bos taurus)
Assay: Inhibition affinity against 5-HT-1D receptor in bovine caudate nucleus using radio binding assay

IC50: > 1 µM
SMILES: Cc1nc(-c2ccc(-c3ccc(C(=O)Nc4ccc(OS(=O)(=O)C(F)(F)F)c(N5CCN(C)CC5)c4)cc3)c(C)c2)no1 [Trifluoro-methanesulfonic acid 4-{[2'-methyl-4'-(5-methyl-[1,2,4]oxadiazol-3-yl)-biphenyl-4-carbonyl]-amino}-2-(4-methyl-piperazin-1-yl)-phenyl ester]

Source: BindingDB's records for doi:10.1021/jm990397l (University of Groningen, 2000)
